Measured values as given in patent publication US20100222269A1, “IMPROVED DERIVATIVES OF AMYLIN” (priority 2007, published 2010).
Starred links: 1 amine or outer side, 2 acyl side, 3 side chain; linkers in the order of their positions; H or OH if unused. Positions of bridges follow the written chain, without caps; N, C: chain ends. Residues, ends and D or L forms follow the SMILES beside them. Groups on a side chain read outwards from the residue. *: point of attachment. C20 diacid = O=C(O)CCCCCCCCCCCCCCCCCCC(=O)*; C18 diacid = O=C(O)CCCCCCCCCCCCCCCCC(=O)*; γGlu = O=C(O)[C@H](CCC(=O)[*:2])N[*:1]; AEEA = NCCOCCOCC(=O)O

Biological target: T1, Amylin 3(a) receptor (human calcitonin receptor (CTa) with RAMP-3) (Homo sapiens, UniProt O60896+P30988)
T1 construct: expressed in transfected cells; host or cells: BHK570 (baby hamster kidney) cells, stably transfected, with CRE-luciferase reporter
T1 sequence (O60896 24-148): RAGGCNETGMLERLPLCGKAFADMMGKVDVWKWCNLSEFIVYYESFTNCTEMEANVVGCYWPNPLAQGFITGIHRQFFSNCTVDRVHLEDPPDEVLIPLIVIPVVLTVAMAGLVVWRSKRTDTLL
T1 sequence (P30988 25-474): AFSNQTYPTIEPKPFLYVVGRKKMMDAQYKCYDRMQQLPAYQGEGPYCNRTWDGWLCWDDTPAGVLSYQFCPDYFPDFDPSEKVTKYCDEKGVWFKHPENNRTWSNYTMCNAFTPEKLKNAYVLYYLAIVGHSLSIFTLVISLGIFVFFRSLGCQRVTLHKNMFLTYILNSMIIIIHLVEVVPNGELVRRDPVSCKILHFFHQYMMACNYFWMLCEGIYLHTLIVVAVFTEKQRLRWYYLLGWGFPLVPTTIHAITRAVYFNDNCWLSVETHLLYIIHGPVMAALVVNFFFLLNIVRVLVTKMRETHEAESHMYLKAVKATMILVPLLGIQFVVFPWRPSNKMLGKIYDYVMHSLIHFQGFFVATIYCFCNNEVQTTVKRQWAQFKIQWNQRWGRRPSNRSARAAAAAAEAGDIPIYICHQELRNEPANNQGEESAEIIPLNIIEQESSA
Experiment: Amylin luciferase assay (CRE-luciferase reporter in BHK Amylin 3(a)//CRE-luc cells)
Type: cell-based
Conditions: BHK570 cells with human calcitonin receptor (CTa), RAMP-3 and CRE-luciferase reporter; 4 hours incubation; read-out: Potency luciferase assay
Outline: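 BHK570 cells stably expressing human calcitonin receptor (CTa), RAMP-3 and a CRE-luciferase reporter, about 20.000 cells/well, were exposed to standard or sample for 4 h at 37° C in phenol-red-free DMEM with 10% FBS and 10 mM Hepes pH 7,4. Luminescence was read after 30 min with LucLite at room temperature.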

EC50 [pM] | Structure (SMILES)
60 | CC[C@H](C)[C@H](NC(=O)[C@H](CCCCNC(=O)COCCOCCNC(=O)COCCOCCNC(=O)CCCCCCCCCCCCCCCCCCC(=O)O)NC(=O)CNC(=O)[C@H](Cc1ccccc1)NC(=O)[C@H](CC(N)=O)NC(=O)[C@H](CC(N)=O)NC(=O)[C@H](CO)NC(=O)[C@H](CO)NC(=O)[C@H](Cc1c[nH]cn1)NC(=O)[C@@H](NC(=O)[C@H](CC(C)C)NC(=O)[C@H](Cc1ccccc1)NC(=O)[C@H](CC(N)=O)NC(=O)[C@H](C)NC(=O)[C@H](CC(C)C)NC(=O)[C@H](CCCNC(=N)N)NC(=O)[C@H](CCC(N)=O)NC(=O)[C@@H](NC(=O)[C@H](C)NC(=O)[C@@H]1CSSC[C@H](NC(=O)[C@@H](N)CCCCN)C(=O)N[C@@H](CC(N)=O)C(=O)N[C@@H]([C@@H](C)O)C(=O)N[C@@H](C)C(=O)N[C@@H]([C@@H](C)O)C(=O)N1)[C@@H](C)O)C(C)C)C(=O)N[C@@H](CC(C)C)C(=O)N1CCC[C@H]1C(=O)N1CCC[C@H]1C(=O)N[C@H](C(=O)N[C@@H](CC(N)=O)C(=O)N[C@H](C(=O)NCC(=O)N[C@@H](CO)C(=O)N[C@@H](CC(N)=O)C(=O)N[C@H](C(=O)N[C@@H](Cc1ccc(O)cc1)C(N)=O)[C@@H](C)O)C(C)C)[C@@H](C)O [Example 10, N-epsilon25-(2-{2-[2-(2-{2-[2-(19-carboxynonadecanoylamino)ethoxy]ethoxy}acetylamino)ethoxy]ethoxy}acetyl)-[Lys25]-pramlintide (1-37)] (H-KCNTATCATQRLANFLVHSSNNFGK([AEEA-AEEA-C20 diacid])ILPPTNVGSNTY-NH2; disulfide 2-7; N-terminus and C-terminus assumed)
100 | CC[C@H](C)[C@H](NC(=O)[C@@H]1CCCN1C(=O)CNC(=O)[C@H](Cc1ccccc1)NC(=O)[C@H](CC(N)=O)NC(=O)[C@H](CC(N)=O)NC(=O)[C@H](CO)NC(=O)[C@H](CO)NC(=O)[C@H](Cc1c[nH]cn1)NC(=O)[C@@H](NC(=O)[C@H](CC(C)C)NC(=O)[C@H](Cc1ccccc1)NC(=O)[C@H](CC(N)=O)NC(=O)[C@H](C)NC(=O)[C@H](CC(C)C)NC(=O)[C@H](CCCNC(=N)N)NC(=O)[C@H](CCC(N)=O)NC(=O)[C@@H](NC(=O)[C@H](C)NC(=O)[C@@H]1CSSC[C@H](NC(=O)[C@@H](N)CCCCN)C(=O)N[C@@H](CCCCNC(=O)COCCOCCNC(=O)COCCOCCNC(=O)CCCCCCCCCCCCCCCCC(=O)O)C(=O)N[C@@H]([C@@H](C)O)C(=O)N[C@@H](C)C(=O)N[C@@H]([C@@H](C)O)C(=O)N1)[C@@H](C)O)C(C)C)C(=O)N[C@@H](CC(C)C)C(=O)N1CCC[C@H]1C(=O)N1CCC[C@H]1C(=O)N[C@H](C(=O)N[C@@H](CC(N)=O)C(=O)N[C@H](C(=O)NCC(=O)N[C@@H](CO)C(=O)N[C@@H](CC(N)=O)C(=O)N[C@H](C(=O)N[C@@H](Cc1ccc(O)cc1)C(N)=O)[C@@H](C)O)C(C)C)[C@@H](C)O [Example 3, N-epsilon3-(2-{2-[2-(2-{2-[2-(17-carboxyheptadecanoylamino)ethoxy]ethoxy}acetylamino)ethoxy]ethoxy}acetyl)-[Lys3]-pramlintide (1-37)] (H-KCK([AEEA-AEEA-C18 diacid])TATCATQRLANFLVHSSNNFGPILPPTNVGSNTY-NH2; disulfide 2-7)
300 | CC[C@H](C)[C@H](NC(=O)[C@@H]1CCCN1C(=O)CNC(=O)[C@H](Cc1ccccc1)NC(=O)[C@H](CC(N)=O)NC(=O)[C@H](CC(N)=O)NC(=O)[C@H](CO)NC(=O)[C@H](CO)NC(=O)[C@H](Cc1c[nH]cn1)NC(=O)[C@@H](NC(=O)[C@H](CC(C)C)NC(=O)[C@H](Cc1ccccc1)NC(=O)[C@H](CC(N)=O)NC(=O)[C@H](C)NC(=O)[C@H](CC(C)C)NC(=O)[C@H](CCCNC(=N)N)NC(=O)[C@H](CCC(N)=O)NC(=O)[C@@H](NC(=O)[C@H](C)NC(=O)[C@@H]1CSSC[C@H](NC(=O)[C@H](CCC(=O)O)NC(=O)[C@H](CCCNC(=N)N)NC(=O)[C@H](CCC(=O)O)NC(=O)[C@H](CCC(=O)O)NC(=O)CC[C@H](NC(=O)CCCCCCCCCCCCCCCCCCC(=O)O)C(=O)O)C(=O)N[C@@H](CC(N)=O)C(=O)N[C@@H]([C@@H](C)O)C(=O)N[C@@H](C)C(=O)N[C@@H]([C@@H](C)O)C(=O)N1)[C@@H](C)O)C(C)C)C(=O)N[C@@H](CC(C)C)C(=O)N1CCC[C@H]1C(=O)N1CCC[C@H]1C(=O)N[C@H](C(=O)N[C@@H](CC(N)=O)C(=O)N[C@H](C(=O)NCC(=O)N[C@@H](CO)C(=O)N[C@@H](CC(N)=O)C(=O)N[C@H](C(=O)N[C@@H](Cc1ccc(O)cc1)C(N)=O)[C@@H](C)O)C(C)C)[C@@H](C)O [Example 38, N-alpha-[(S)-4-carboxy-4-(19-carboxynonadecanoylamino)butyryl]-Glu-Glu-Arg-[Glu1]-pramlintide (1-37)] ({C20 diacid-γGlu}-EERECNTATCATQRLANFLVHSSNNFGPILPPTNVGSNTY-NH2; disulfide 5-10; C-terminus assumed)
